Data: article PMC10607100, “Anticancer and Antiphytopathogenic Activity of Fluorinated Isatins and Their Water-Soluble Hydrazone Derivatives” (International Journal of Molecular Sciences, 2023)
Where two headings read alike, the source gives them in different places.

Columns and labels:
[1] = tested on: Micrococcus luteus B-109; experiment: Agar-well diffusion, bactericidal activity; assay type: cell-based; conditions: Micrococcus luteus
Procedure, shortened: (§1)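 Bacteria spread on agar (BP medium; GYCa for X. campestris; pH 7.2–7.4) with 6-mm wells, each receiving 150 μL compound solution. Cultures grown at 28 °C; growth-inhibition zone width measured after 36–40 h.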

[2] = tested on: Pseudomonas fluorescens EL-2.1; experiment: Agar-well diffusion, bactericidal activity; assay type: cell-based; conditions: Pseudomonas fluorescens, EL2.1, 2 mM/L
Procedure, shortened: as §1

[3] = tested on: Pectobacterium carotovorum subsp. carotovorum MI; experiment: Agar-well diffusion, bactericidal activity; assay type: cell-based; conditions: Pectobacterium carotovorum, 2 mM/L
Procedure, shortened: as §1

[4] = tested on: Pectobacterium atrosepticum 1043; experiment: Agar-well diffusion, bactericidal activity; assay type: cell-based; conditions: Pectobacterium atrosepticum, 1043, 2 mM/L
Procedure, shortened: as §1

[5] = tested on: Xanthomonas campestris B-610; experiment: Agar-well diffusion, bactericidal activity; assay type: cell-based; conditions: Xanthomonas campestris
Procedure, shortened: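 Agar-well diffusion on GYCa agar (pH 7.2–7.4) seeded with bacterial suspension; 150 μL compound solution placed in 6-mm wells. Inhibition zone width measured after 36–40 h incubation.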

[6] = tested on: five representative phytopathogens; experiment: Agar-well diffusion, bactericidal activity over the panel of phytopathogens; assay type: cell-based
Procedure, shortened: as §1

[7] = tested on: Fusarium oxysporum IBPPM 543; experiment: Mycelial radial growth inhibition; assay type: cell-based; conditions: Fusarium oxysporum; for inhibition of growth at 1 µM: 1 nmol/mL; for inhibition of growth at 1 µM / inhibition of growth at 5 µM / inhibition of growth at 20 µM / inhibition of growth at 40 µM: read-out: Inhibition value, I (%); for inhibition of growth at 5 µM: 5 nmol/mL; for inhibition of growth at 20 µM: 20 nmol/mL; for inhibition of growth at 40 µM: 40 nmol/mL
Procedure, shortened: (§2)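 Compounds mixed into molten GPY agar at various concentrations; centre inoculated with a 5-mm mycelial plug from 10-day cultures and incubated at 27 °C. Colony diameter compared with untreated control until control plate was covered (usually 12 days); ≥4 replicates in two experiments.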

[8] = tested on: Phytophthora cactorum VKM F-985; experiment: Mycelial radial growth inhibition; assay type: cell-based; conditions: Phytophthora cactorum; for inhibition of growth at 1 µM: 1 nmol/mL; for inhibition of growth at 1 µM / inhibition of growth at 5 µM / inhibition of growth at 15 µM / inhibition of growth / inhibition of growth at 40 µM: read-out: Inhibition value, I (%); for inhibition of growth at 5 µM: 5 nmol/mL; for inhibition of growth at 15 µM: 15 nmol/mL; for inhibition of growth: 27 nmol/mL; for inhibition of growth at 40 µM: 40 nmol/mL
Procedure, shortened: as §2

[9] = Table S3, read-out: Inhibition zone width (mm), not less
[10] = IBPPM543, 72 h, age of the fungus 3 days
[11] = IBPPM543, 120 h, age of the fungus 5 days
[12] = IBPPM543, 168 h, age of the fungus 7 days
[13] = IBPPM543, 216 h, age of the fungus 9 days
[14] = 120 h, age of the fungus 5 days
[15] = 168 h, age of the fungus 7 days
[16] = 216 h, age of the fungus 9 days

For O=C(C[n+]1ccccc1)NN=C1C(=O)N(Cc2c(F)c(F)c(F)c(F)c2F)c2ccc(F)cc21.[Cl-] [Compound 5d, 1-(2-(2-(5-Fluoro-2-oxo-1-((perfluorophenyl)methyl)indolin-3-ylidene)hydrazinyl)-2-oxoethyl)pyridin-1-ium chloride], the zone of inhibition at 2000 µM ([1]; B109, 2 mM/L, average of 3 experiments, read-out: width of the inhibition zone (mm), M. luteus) was 3 mm, the zone of inhibition at 2000 µM ([1]; B109, Table S3, 2 mM/L, read-out: Inhibition zone width (mm), not less) was at least 3 mm and the zone of inhibition at 2000 µM ([2]; average of 3 experiments, read-out: width of the inhibition zone (mm), Ps. fluorescens) was 2 mm. For the same molecule, the zone of inhibition at 2000 µM [2, 9] was at least 2 mm, the zone of inhibition at 2000 µM ([3]; average of 3 experiments, read-out: width of the inhibition zone (mm), P. carotovorum subsp. carotovorum) was 4 mm and the zone of inhibition at 2000 µM [3, 9] was at least 4 mm. The zone of inhibition at 2000 µM ([4]; average of 3 experiments, read-out: width of the inhibition zone (mm), P. atrosepticum) was 4 mm, the zone of inhibition at 2000 µM [4, 9] was at least 4 mm and the zone of inhibition at 2000 µM ([5]; B610, 2 mM/L, average of 3 experiments, read-out: width of the inhibition zone (mm), X. campestris) was 4 mm. The zone of inhibition at 2000 µM ([5]; B610, Table S3, 2 mM/L, read-out: Inhibition zone width (mm), not less) was at least 4 mm, the zone of inhibition at 2000 µM ([6]; 36 h, 2 mM solutions, dependent on the test system used, read-out: inhibition zone width (mm), range over the test systems) was 2 to 4 mm and the “bactericidal activity” value ([6]; Table S2) was “moderate bactericidal activity”. The melting point was 165 to 166 °C, the inhibition of growth at 1 µM [7, 10] was 9% and the inhibition of growth at 5 µM [7, 10] was 33%. The inhibition of growth at 20 µM [7, 10] was 35%, the inhibition of growth at 40 µM [7, 10] was 49% and the EC50 ([7]; IBPPM543, 120 h, day 5, read-out: EC50, µg/mL at Day 5, F. oxysporum) was 17.4 µg/mL. For the same molecule, the inhibition of growth at 1 µM [7, 11] was 10%, the inhibition of growth at 5 µM [7, 11] was 24% and the inhibition of growth at 20 µM [7, 11] was 37%. For the same molecule, the inhibition of growth at 40 µM [7, 11] was 54%, the inhibition of growth at 1 µM [7, 12] was 10% and the inhibition of growth at 5 µM [7, 12] was 23%. It also gave an inhibition of growth at 20 µM [7, 12] of 32%, an inhibition of growth at 40 µM [7, 12] of 41% and an inhibition of growth at 1 µM [7, 13] of 0%. It also gave an inhibition of growth at 5 µM [7, 13] of 16%, an inhibition of growth at 20 µM [7, 13] of 18% and an inhibition of growth at 40 µM [7, 13] of 36%. The inhibition of growth at 1 µM ([8]; 72 h, age of the fungus 3 days) was 15%, the inhibition of growth at 5 µM ([8]; 72 h, age of the fungus 3 days) was 20% and the inhibition of growth at 15 µM ([8]; 72 h, age of the fungus 3 days) was 26%. For the same molecule, the inhibition of growth ([8]; 72 h, age of the fungus 3 days) was 28%, the inhibition of growth at 40 µM ([8]; 72 h, age of the fungus 3 days) was 35% and the EC50 ([8]; 120 h, day 5, read-out: EC50, µg/mL at Day 5, P. cactorum) was 24.7 µg/mL. The inhibition of growth at 1 µM [8, 14] was 12%, the inhibition of growth at 5 µM [8, 14] was 19% and the inhibition of growth at 15 µM [8, 14] was 28%. It also gave an inhibition of growth [8, 14] of 32%, an inhibition of growth at 40 µM [8, 14] of 43% and an inhibition of growth at 1 µM [8, 15] of 10%. It also gave an inhibition of growth at 5 µM [8, 15] of 16%, an inhibition of growth at 15 µM [8, 15] of 23% and an inhibition of growth [8, 15] of 25%. For the same molecule, the inhibition of growth at 40 µM [8, 15] was 33%, the inhibition of growth at 1 µM [8, 16] was 8% and the inhibition of growth at 5 µM [8, 16] was 11%. The inhibition of growth at 15 µM [8, 16] was 13%, the inhibition of growth [8, 16] was 22% and the inhibition of growth at 40 µM [8, 16] was 29%.
